Tests used:
[1] = system: CUG RNA foci in primary DM1 patient myoblasts; test: DOUBLE-cut screening: FISH staining of RNA foci in primary DM1 patient myoblasts; assay type: cell-based, human; settings: sgRNA pair RNP, 72 hrs post nucleofection; for % of CUG foci free nuclei (DNA-PKi): 3 μM Compound 6 for 48 hrs; for % of CUG foci free nuclei (Vehicle): DMSO 48 hrs
How it was run: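 Primary DM1 patient myoblasts nucleofected with paired upstream/downstream sgRNA–SaCas9 RNPs (20 pmol protein, 60 pmol sgRNA each), then treated 48 hrs with DMSO or 3 μM DNA-PK inhibitor. At 72 hrs post nucleofection, CUG foci stained by Cy3-PNA(CAG)5 FISH with MBNL1 co-staining and quantified by high-content confocal imaging.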

[2] = system: CTG repeat expansion in the 3′ UTR of human DMPK gene; test: DOUBLE-cut screening: CTG repeat excision by loss-of-signal ddPCR in primary DM1 patient myoblasts; assay type: cell-based; settings: sgRNA pair RNP, mean of upstream and downstream ddPCR assays; for % of CTG repeat excision efficiency by ddPCR (DNA-PKi): 3 μM Compound 6 for 48 hrs; for % of CTG repeat excision efficiency by ddPCR (Vehicle): DMSO 48 hrs
How it was run: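 Paired upstream/downstream sgRNAs, each as RNP with recombinant SaCas9 (20 pmol protein:60 pmol sgRNA), mixed 1:1 and nucleofected into primary DM1 myoblasts; cells then given DMSO or 3 μM DNA-PKi Compound 6 for 48 hrs. Genomic DNA taken 72 hrs post-nucleofection; excision is mean of upstream and downstream loss-of-signal ddPCR, normalized to DMPK exon 1 reference.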

Substance	% of CUG foci free nuclei (DNA-PKi) [1]	% of CUG foci free nuclei (Vehicle) [1]	% of CTG repeat excision efficiency by ddPCR (DNA-PKi) [2]	% of CTG repeat excision efficiency by ddPCR (Vehicle) [2]
SaU7 + SaD15: SaCas9 sgRNA pair, SEQ ID NOs: 7 and 23 (guide 1 CGCGGCCGGCGAACGGGGCTCG; guide 2 GACAATAAATACCGAGGAATGT; listed as DNA, chemistry not fully specified)	89.69%	64.62%	66.66%	36.65%
SaU1 + SaD20: SaCas9 sgRNA pair, SEQ ID NOs: 1 and 28 (guide 1 GCCCCGGAGTCGAAGACAGTTC; guide 2 AGATGGAGGGCCTTTTATTCGC; listed as DNA, chemistry not fully specified)	83.73%	69.61%	61.37%	39.94%
SaU1 + SaD17: SaCas9 sgRNA pair, SEQ ID NOs: 1 and 25 (guide 1 GCCCCGGAGTCGAAGACAGTTC; guide 2 TTTATTCGCGAGGGTCGGGGGT; listed as DNA, chemistry not fully specified)	75.32%	45.51%	53.66%	26.29%
SaU8 + SaD19: SaCas9 sgRNA pair, SEQ ID NOs: 8 and 27 (guide 1 GGCTCGAAGGGTCCTTGTAGCC; guide 2 AGGACCCCCACCCCCGACCCTC; listed as DNA, chemistry not fully specified)	83.45%	61.41%	46.04%	28.95%
SaU8 + SaD17: SaCas9 sgRNA pair, SEQ ID NOs: 8 and 25 (guide 1 GGCTCGAAGGGTCCTTGTAGCC; guide 2 TTTATTCGCGAGGGTCGGGGGT; listed as DNA, chemistry not fully specified)	79.35%	52.34%	49.09%	30.50%
SaU4 + SaD6: SaCas9 sgRNA pair, SEQ ID NOs: 4 and 14 (guide 1 CCAGTTCACAACCGCTCCGAGC; guide 2 CTTTTGCCAAACCCGCTTTTTC; listed as DNA, chemistry not fully specified)	67.36%	37.76%	48.99%	28.23%
SaU7 +SaD13: SaCas9 sgRNA pair, SEQ ID NOs: 7 and 21 (guide 1 CGCGGCCGGCGAACGGGGCTCG; guide 2 CCCAACAACCCCAATCCACGTT; listed as DNA, chemistry not fully specified)	78.52%	28.69%	55.97%	25.62%
SaU3 + SaD13: SaCas9 sgRNA pair, SEQ ID NOs: 3 and 21 (guide 1 ACTCCGGGGCCCCGTTGGAAGA; guide 2 CCCAACAACCCCAATCCACGTT; listed as DNA, chemistry not fully specified)	74.02%	38.07%	57.82%	30.34%
SaU1 + SaD3: SaCas9 sgRNA pair, SEQ ID NOs: 1 and 11 (guide 1 GCCCCGGAGTCGAAGACAGTTC; guide 2 CAACGATAGGTGGGGGTGCGTG; listed as DNA, chemistry not fully specified)	81.32%	47.32%	52.18%	33.47%
SaU2 + SaD10: SaCas9 sgRNA pair, SEQ ID NOs: 2 and 18 (guide 1 ACTCAGTCTTCCAACGGGGCCC; guide 2 TTGGGGGTCCTGTAGCCTGTCA; listed as DNA, chemistry not fully specified)	82.97%	75.56%	66.52%	38.02%
SaU8 + SaD12: SaCas9 sgRNA pair, SEQ ID NOs: 8 and 20 (guide 1 GGCTCGAAGGGTCCTTGTAGCC; guide 2 TCAGTGCATCCAAAACGTGGAT; listed as DNA, chemistry not fully specified)	85.37%	76.92%	55.46%	36.64%
SaU1 + SaD7: SaCas9 sgRNA pair, SEQ ID NOs: 1 and 15 (guide 1 GCCCCGGAGTCGAAGACAGTTC; guide 2 GGGGCGCGGGATCCCCGAAAAA; listed as DNA, chemistry not fully specified)	80.16%	49.51%	56.69%	34.21%
SaU2 + SaD7: SaCas9 sgRNA pair, SEQ ID NOs: 2 and 15 (guide 1 ACTCAGTCTTCCAACGGGGCCC; guide 2 GGGGCGCGGGATCCCCGAAAAA; listed as DNA, chemistry not fully specified)	76.74%	49.05%	52.12%	29.62%
